# Like-named read-outs stand apart in the source and are kept apart here.
# Legend:
# [1] = system: HepG2 cells; test: TPC assay (total protein content), 72 h exposure; type: cell-based, human; details: mean ± SD, n = 3
# Procedure: (§1) The human hepatoma (HepG2) and colorectal adenocarcinoma (Caco-2) cells were purchased from the American Type Culture Collection: ATCC HB-8065 and ATCC HTB-37, respectively. These cells were cultured in Minimum Essential Medium Eagle (MEME) (ATCC). The murine fibroblasts cell line (Balb/c 3T3 clone A31) (gift from the Department of Swine Diseases of the National Veterinary Research Institute in Pulawy) was cultured in Dulbecco’s Modified Eagle Medium (DMEM) (ATCC). The media were supplemented with 10% BCS (Balb/c 3T3), 10% FBS (HepG2), 20% FBS (Caco-2), 1% L-glutamine, 1% antibiotic solution. The cells were maintained in 75 cm^2 cell culture flasks (NUNC) in a humidified incubator at 37 °C in an atmosphere of 5% CO2. The medium was refreshed every two or three days, and the cells were trypsinized by 0.25% trypsin–0.02% EDTA after reaching 70–80% confluence. Single cell suspensions were prepared and adjusted to a density of 2 × 10^5 cell/mL^−1 (HepG2), 1 × 10^5 cell/mL^−1 (Caco-2) and 5 × 10^4 cell/mL^−1 (Balb/c 3T3). The cell suspension was transferred to 96-well plates (100 µL/well) and incubated for 24 h before the exposure to the studied compounds. Stock solutions of ligands and metal complexes were prepared in sterile water and diluted with culture medium to obtain a concentration range from 0.1 to 10 µM. The final concentration of sterile water was 0.1% in the medium. […] As a negative control, cultured cells were grown in the absence of studied compounds. Each concentration was tested in six replicates in three independent experiments. Cytotoxicity was assessed after 72 h of exposure of the cells to compounds. The medium was not changed during the incubation time.
# This assay is based upon staining the total cellular protein (proliferation). After the incubation, the medium containing the drug was removed, and 100 µL Coomassie brilliant blue R-250 dye was added to each well. The plate was shaken for 10 min. Then, the stain was removed and the cells were rinsed twice with 100 µL of washing solution (glacial acetic acid/ethanol/water, 5:10:85, v:v:v). After that, 100 µL of the desorbing solution (1 M potassium acetate) was added, and plates were shaken again for 10 min. The absorbance was measured at 595 nm in a microplate reader Synergy HTX multi-mode reader (BioTek® Instruments Inc., Winooski, VT, USA) using a blank as a reference. Cytotoxicity was expressed as a percentage of the negative control.
# The study was performed in three independent experiments. The obtained results are presented as mean values ± SD (standard deviation). The assessment of the cytotoxicity data used a one-way analysis of variance (ANOVA) followed by Dunnett’s post hoc test, which was applied to determine significance relative to the negative control.
# [2] = system: B. subtilis ATCC 6633; test: micro-dilution broth method (MIC, MBC); type: cell-based, Bacillus subtilis
# [3] = system: P. acnes ATCC 11827; test: micro-dilution broth method (MIC, MBC); type: cell-based, Propionibacterium acnes
# [4] = system: C. perfringens ATCC 13124; test: microbe, parasite or virus in culture; type: cell-based, Clostridium perfringens
# [5] = system: C. jejunii ATCC 33291; test: micro-dilution broth method (MIC, MBC); type: cell-based, Campylobacter jejunii
# [6] = system: H. pylori ATCC 43504; test: micro-dilution broth method (MIC, MBC); type: cell-based
# [7] = system: P. mirabilis ATCC 12453; test: micro-dilution broth method (MIC, MBC); type: cell-based, Proteus mirabilis
# [8] = system: K. pneumoniae ATCC 13883; test: micro-dilution broth method (MIC, MBC); type: cell-based, Klebsiella pneumoniae
# [9] = system: F. nucleatum ATCC 25586; test: micro-dilution broth method (MIC, MBC); type: cell-based, Fusobacterium nucleatum
# [10] = light stability in normal daylight, visual assessment; type: physicochemical
# [11] = system: HepG2 cells; test: LDH leakage assay (membrane integrity), 72 h exposure; type: cell-based, human; details: Homo sapiens, mean ± SD, n = 3
# Procedure: as §1
# (§2) The integrity of the plasma membrane was assessed through the test of lactate dehydrogenase (LDH) release, which was monitored using the commercially available Cytotoxicity Detection Kit (LDH) (Roche Diagnostics, Warsaw, Poland). […] The absorbance was measured at 492 nm in a microplate reader Synergy HTX multi-mode reader (BioTek® Instruments Inc., Winooski, VT, USA) using a blank as a reference. […]
# [12] = system: Caco-2 cells; test: MTT assay (mitochondrial activity), 72 h exposure; type: cell-based, human; details: Homo sapiens, Caco-2, MTT, mean ± SD, n = 3
# [13] = system: Caco-2 cells; test: TPC assay (total protein content), 72 h exposure; type: cell-based, human; details: Homo sapiens, Caco-2, TPC, mean ± SD, n = 3
# [14] = system: Balb/c 3T3 cells; test: TPC assay (total protein content), 72 h exposure; type: cell-based, murine; details: Mus musculus, BALB/c3T3, Balb/c 3T3, TPC, mean ± SD, n = 3
# Procedure: as §1
# This assay is based upon staining the total cellular protein (proliferation). […] The absorbance was measured at 595 nm in a microplate reader Synergy HTX multi-mode reader (BioTek® Instruments Inc., Winooski, VT, USA) using a blank as a reference. Cytotoxicity was expressed as a percentage of the negative control. […]
# [15] = system: Balb/c 3T3 cells; test: LDH leakage assay (membrane integrity), 72 h exposure; type: cell-based, murine; details: Mus musculus, BALB/c3T3, Balb/c 3T3, LDH, mean ± SD, n = 3
# Procedure: as §1, §2
# [16] = B. subtilis ATCC 6633, value in brackets
# [17] = P. acnes ATCC 11827, value in brackets
# [18] = C. perfringens ATCC 13124, value in brackets
# [19] = C. jejunii ATCC 33291, value in brackets
# [20] = H. pylori ATCC 43504, value in brackets
# [21] = P. mirabilis ATCC 12453, value in brackets
# [22] = K. pneumoniae ATCC 13883, value in brackets
# [23] = F. nucleatum ATCC 25586, value in brackets
# [24] = Clostridium perfringens, ATCC13124
# [25] = Fusobacterium nucleatum, ATCC25586
smiles,measurement,setting,value
"O=[N+]([O-])[O-].[Ag+] [AgNO3, Silver nitrate]",IC50,[1],> 10 µM
same,MBC,[2]; B. subtilis ATCC 6633,15.6 mg/L
same,MIC,[2]; B. subtilis ATCC 6633,15.6 mg/L
same,MBC,[2]; [16],0.09 µM/mL
same,MIC,[2]; [16],0.09 µM/mL
same,MBC,[3]; P. acnes ATCC 11827,62.5 mg/L
same,MIC,[3]; P. acnes ATCC 11827,62.5 mg/L
same,MBC,[3]; [17],0.37 µM/mL
same,MIC,[3]; [17],0.37 µM/mL
same,MBC,[4]; C. perfringens ATCC 13124,62.5 mg/L
same,MIC,[4]; C. perfringens ATCC 13124,62.5 mg/L
same,MBC,[4]; [18],0.37 µM/mL
same,MIC,[4]; [18],0.37 µM/mL
same,MBC,[5]; C. jejunii ATCC 33291,125 mg/L
same,MIC,[5]; C. jejunii ATCC 33291,62.5 mg/L
same,MBC,[5]; [19],0.74 µM/mL
same,MIC,[5]; [19],0.37 µM/mL
same,MBC,[6]; H. pylori ATCC 43504,15.6 mg/L
same,MIC,[6]; H. pylori ATCC 43504,15.6 mg/L
same,MBC,[6]; [20],0.09 µM/mL
same,MIC,[6]; [20],0.09 µM/mL
same,MBC,[7]; P. mirabilis ATCC 12453,15.6 mg/L
same,MIC,[7]; P. mirabilis ATCC 12453,7.8 mg/L
same,MBC,[7]; [21],0.09 µM/mL
same,MIC,[7]; [21],0.049 µM/mL
same,MBC,[8]; K. pneumoniae ATCC 13883,7.8 mg/L
same,MIC,[8]; K. pneumoniae ATCC 13883,7.8 mg/L
same,MBC,[8]; [22],0.049 µM/mL
same,MIC,[8]; [22],0.049 µM/mL
same,MBC,[9]; F. nucleatum ATCC 25586,0.98 mg/L
same,MIC,[9]; F. nucleatum ATCC 25586,0.49 mg/L
same,MBC,[9]; [23],0.006 µM/mL
same,MIC,[9]; [23],0.003 µM/mL
same,time of exposure after which darkening began,[10]; 1.25 µmol applied on paper,10 min
same,time of exposure after which darkening began,[10]; 1.25 µmol applied on tissue paper,30 min
same,time to complete darkening,"[10]; on both groundworks (paper, tissue paper)",24 h
"Cc1ncc([N+](=O)[O-])n1CCO [MTZ, 2-Methyl-5-nitroimidazole-1-ethanol]",IC50,[1]; Homo sapiens,> 10 µM
same,IC50,[11],> 10 µM
same,IC50,[12],> 10 µM
same,IC50,[13],> 10 µM
same,IC50,[14],> 10 µM
same,IC50,[15],> 10 µM
same,MBC,[2]; [16],1.46 µM/mL
same,MIC,[2]; [16],0.73 µM/mL
same,MBC,"[2]; Bacillus subtilis, ATCC6633, B. subtilis ATCC 6633, read-out: MBC",250 mg/L
same,MBC,"[3]; Cutibacterium acnes, ATCC11827, P. acnes ATCC 11827, read-out: MBC",> 1000 mg/L
same,MIC,"[3]; Cutibacterium acnes, ATCC11827, P. acnes ATCC 11827, read-out: MIC",> 1000 mg/L
same,MBC,[3]; [17],> 5.85 µM/mL
same,MIC,[3]; [17],> 5.85 µM/mL
same,MBC,[4]; [18],0.01 µM/mL
same,MIC,[4]; [18],0.01 µM/mL
same,MBC,[4]; [24],1.95 mg/L
same,MIC,[4]; [24],1.95 mg/L
same,MBC,[5]; [19],> 5.85 µM/mL
same,MIC,[5]; [19],2.93 µM/mL
same,MBC,"[5]; Campylobacter, ATCC33291, C. jejunii ATCC 33291, read-out: MBC",> 1000 mg/L
same,MIC,"[5]; Campylobacter, ATCC33291, C. jejunii ATCC 33291, read-out: MIC",500 mg/L
same,MBC,[6]; [20],0.09 µM/mL
same,MIC,[6]; [20],0.09 µM/mL
same,MBC,"[6]; Helicobacter pylori, ATCC43504, H. pylori ATCC 43504, read-out: MBC",15.6 mg/L
same,MIC,"[6]; Helicobacter pylori, ATCC43504, H. pylori ATCC 43504, read-out: MIC",15.6 mg/L
same,MBC,[8]; [22],5.85 µM/mL
same,MIC,[8]; [22],5.85 µM/mL
same,MBC,"[8]; Klebsiella pneumoniae, ATCC13883, K. pneumoniae ATCC 13883, read-out: MBC",1000 mg/L
same,MIC,"[8]; Klebsiella pneumoniae, ATCC13883, K. pneumoniae ATCC 13883, read-out: MIC",1000 mg/L
same,MBC,[9]; [23],0.01 µM/mL
same,MIC,[9]; [23],0.01 µM/mL
same,MBC,[9]; [25],1.95 mg/L
same,MIC,[9]; [25],1.95 mg/L
